Values quoted from earlier work as cited in patent US5882682A (Merck & Co., Inc., priority 1997, dated 1999).
Converted amounts (≈) assume the structure as drawn.

How the values were obtained:
[1] = humans

| Structure (SMILES) | reduction of serum cholesterol levels [1] | aqueous solubility (water) [µg/mL] | aqueous solubility (in words) |
| --- | --- | --- | --- |
| CCC(C)(C)C(=O)O[C@H]1C[C@@H](C)C=C2C=C[C@H](C)[C@H](CC[C@@H]3C[C@@H](O)CC(=O)O3)[C@H]21 [simvastatin] | highly effective |  |  |
| CC[C@H](C)C(=O)O[C@H]1C[C@@H](C)C=C2C=C[C@H](C)[C@H](CC[C@@H]3C[C@@H](O)CC(=O)O3)[C@H]21 [lovastatin] | highly effective | 0.44 (≈ 1.09 µM) |  |
| COc1ccc2c(c1)c(CC(=O)O)c(C)n2C(=O)c1ccc(Cl)cc1 [indomethacin] |  |  | poorly aqueous soluble |
| CC(=O)Nc1ccc(O)cc1 [acetominophren, acetaminophen] |  |  | moderately soluble |
